Data on one molecule can be found in ChEMBL document CHEMBL1137209, “Piperazine derivatives of [1,2,4]triazolo[1,5-a][1,3,5]triazine as potent and selective adenosine A2a receptor antagonists” (J Med Chem, 2004).

For one data set, the target named is T1, Adenosine receptor A2b (Homo sapiens, UniProt P29275).
T1 sequence (P29275 whole entry): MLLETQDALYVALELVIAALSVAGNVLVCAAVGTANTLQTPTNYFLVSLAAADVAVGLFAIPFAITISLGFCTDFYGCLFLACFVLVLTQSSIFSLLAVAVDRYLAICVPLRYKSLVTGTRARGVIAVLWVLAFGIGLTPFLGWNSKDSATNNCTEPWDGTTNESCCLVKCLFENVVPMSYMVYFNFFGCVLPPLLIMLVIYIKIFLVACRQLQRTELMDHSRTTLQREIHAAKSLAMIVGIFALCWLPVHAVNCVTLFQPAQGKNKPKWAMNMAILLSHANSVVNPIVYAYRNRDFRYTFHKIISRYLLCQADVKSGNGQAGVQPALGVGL
Kind of data set: Selectivity for recombinant human adenosine A2b receptor.

The nature of data set [1]: Volume of distribution in rats. As to conditions: rat, in vivo; read-out: Vdss. It counts as ADME, organism-based.
Data set [2] deals with Adenosine receptor A2a (Homo sapiens, UniProt P29274). Kind of data set: Selectivity for recombinant human adenosine A2a receptor.
The target in data set [3] is Adenosine receptor A2a (Rattus norvegicus, UniProt P30543).
The next data set relates to Mus musculus. Kind of data set: Compound was tested in mouse catalepsy study (po); active at 3 mg/kg. Further details: dose 3 mg/kg. The data set is classed as functional, organism-based.
Data set [4] can be described thus: Oral bioavailability in rat. It counts as ADME, organism-based. To be noted: in vivo.
In data set [5] the test system is Rattus norvegicus. Kind of data set: Minimum effective dose (po) for 6-hydroxydopamine rotation in male Sprague-Dawley rats. The data set is classed as functional. To be noted: read-out: MED.
Data set [6] is filed under the species Rattus norvegicus. Put plainly: Effective peroral dose in rat catalepsy study. It counts as functional. To be noted: po.
For data set [7], the target named is T2, Adenosine receptor A1 (Homo sapiens, UniProt P30542).
T2 sequence (P30542 whole entry): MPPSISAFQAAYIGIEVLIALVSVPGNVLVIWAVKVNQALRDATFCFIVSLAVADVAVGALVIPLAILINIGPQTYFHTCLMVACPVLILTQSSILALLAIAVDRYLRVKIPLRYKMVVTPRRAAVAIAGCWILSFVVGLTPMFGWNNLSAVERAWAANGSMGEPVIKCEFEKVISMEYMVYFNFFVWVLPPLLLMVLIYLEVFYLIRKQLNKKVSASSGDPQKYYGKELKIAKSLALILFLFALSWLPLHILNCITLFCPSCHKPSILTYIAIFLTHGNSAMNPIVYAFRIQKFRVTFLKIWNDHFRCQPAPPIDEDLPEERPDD
Kind of data set: Selectivity for recombinant human adenosine A1 receptor.

Data set [8] is described as follows: Half-life in rats. It counts as ADME, organism-based. To be noted: rat, in vivo.
A further data set has as its target T3, Adenosine receptor A3 (Homo sapiens, UniProt P0DMS8).
T3 sequence (P0DMS8 whole entry): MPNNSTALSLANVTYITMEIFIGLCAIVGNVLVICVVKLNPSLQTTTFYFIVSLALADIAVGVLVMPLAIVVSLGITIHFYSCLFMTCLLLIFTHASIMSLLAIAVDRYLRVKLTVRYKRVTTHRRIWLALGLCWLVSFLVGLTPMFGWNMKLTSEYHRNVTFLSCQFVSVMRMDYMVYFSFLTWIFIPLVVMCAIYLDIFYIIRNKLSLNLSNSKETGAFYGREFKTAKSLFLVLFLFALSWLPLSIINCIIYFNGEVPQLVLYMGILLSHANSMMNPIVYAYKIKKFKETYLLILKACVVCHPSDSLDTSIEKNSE
Put plainly: Selectivity for recombinant human adenosine A3 receptor.

Data set [9] addresses T4, Adenosine receptor A1 (Rattus norvegicus, UniProt P25099).
T4 sequence (P25099 whole entry): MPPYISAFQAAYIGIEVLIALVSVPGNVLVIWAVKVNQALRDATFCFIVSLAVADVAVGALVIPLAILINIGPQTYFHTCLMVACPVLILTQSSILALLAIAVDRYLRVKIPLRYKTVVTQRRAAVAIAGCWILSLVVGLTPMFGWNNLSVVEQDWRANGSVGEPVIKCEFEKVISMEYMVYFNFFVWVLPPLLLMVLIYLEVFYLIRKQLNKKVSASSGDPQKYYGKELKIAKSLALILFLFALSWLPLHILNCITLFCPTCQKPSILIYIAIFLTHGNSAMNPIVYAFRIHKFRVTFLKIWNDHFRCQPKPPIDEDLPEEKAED
Kind of data set: Inhibition of [3H]DPCPX binding to rat cerebral cortex adenosine A1 receptor.

Calls of active or inactive are those of the source. The calls are words filed in the database; no cut-off is given here. Where only a bound is given, the exact number is not on record here.

Chain of Adenosine receptor A2a (Homo sapiens, UniProt P29274) (P29274 whole entry): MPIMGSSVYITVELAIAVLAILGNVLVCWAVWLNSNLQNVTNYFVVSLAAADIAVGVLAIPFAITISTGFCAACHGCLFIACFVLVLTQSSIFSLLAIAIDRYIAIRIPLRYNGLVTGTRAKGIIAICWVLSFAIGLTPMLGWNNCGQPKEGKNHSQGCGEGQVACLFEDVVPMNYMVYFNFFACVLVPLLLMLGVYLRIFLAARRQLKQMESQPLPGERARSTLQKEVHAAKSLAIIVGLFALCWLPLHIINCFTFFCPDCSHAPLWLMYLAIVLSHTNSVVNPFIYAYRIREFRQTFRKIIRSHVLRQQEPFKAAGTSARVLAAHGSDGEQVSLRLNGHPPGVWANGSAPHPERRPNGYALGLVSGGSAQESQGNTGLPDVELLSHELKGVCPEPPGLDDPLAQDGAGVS
Chain of Adenosine receptor A2a (Rattus norvegicus, UniProt P30543) (P30543 whole entry): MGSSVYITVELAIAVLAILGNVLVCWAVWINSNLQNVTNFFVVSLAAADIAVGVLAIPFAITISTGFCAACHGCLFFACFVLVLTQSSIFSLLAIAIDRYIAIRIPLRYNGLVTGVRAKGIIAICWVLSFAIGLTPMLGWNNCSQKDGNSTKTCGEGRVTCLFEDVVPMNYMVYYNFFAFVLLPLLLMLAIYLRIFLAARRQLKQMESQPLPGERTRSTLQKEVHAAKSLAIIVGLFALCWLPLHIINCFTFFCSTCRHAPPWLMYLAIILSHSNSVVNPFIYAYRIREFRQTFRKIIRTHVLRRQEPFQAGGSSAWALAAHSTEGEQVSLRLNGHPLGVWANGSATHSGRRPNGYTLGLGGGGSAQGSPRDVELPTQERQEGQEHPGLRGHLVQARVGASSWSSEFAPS

In the case of `Cn1nc(C(F)(F)F)c(CN2CCN(c3nc(N)n4nc(-c5ccco5)nc4n3)CC2)c1Cl`, the Ki at Adenosine receptor A2b was 28000 nM; at Adenosine receptor A2a [2], 100 nM; at Adenosine receptor A2a [3], 14 nM; at Adenosine receptor A1 [7], 10000 nM; on Adenosine receptor A3, more than 10000 nM; on Adenosine receptor A1 [9] it was 1100 nM. In data set [1], the Vd was determined as 1.8 L/kg. In the data set on Mus musculus, the outcome was Active. The molecule further yielded a bioavailability in [4] of 7%. In the data set with Rattus norvegicus [5], the minimal effective dose is 3 mg/kg. This molecule had an ED50 in the data set filed under Rattus norvegicus [6] of 3 mg/kg. For the same molecule, in [8], the half-life is 30 min.
